Patent US7943628B2, “Pyrimidine derivatives” (Pfizer Limited, priority 2005, dated 2011)

Experiments:
histamine H4 receptor [1] = molecular target: T1, histamine H4 receptor (Homo sapiens, UniProt Q9H3N8); test: H4 binding, method 2 ([3H]-histamine binding with Ysi WGA beads on CHO cell membranes); details: H4 binding, method 2, Ki calculated from IC50 (Cheng-Prussoff)
T1 construct: expressed in transfected cells; host or cells: CHO cells
Method: Cell pellets from CHO cells expressing the histamine H4 receptor were homogenised in ice-cold 50 mM Tris-HCl/0.5 mM CaCl2 buffer containing a protease inhibitor cocktail (Roche®, United Kingdom) using a ground glass homogeniser. Homogenates were centrifuged at 48000 g for 30 min at 4° C. The membrane pellet was resuspended in fresh buffer and the centrifugation step was repeated as described above. The membrane pellet was resuspended in 50 mM Tris-HCl in the same volume as the original cell pellet. Aliquots of membrane preparations were stored at −80° C. and were used for [^3H]-Histamine binding experiments.
Cell membranes (15 μg/well) were pre-incubated for 120 min shaking at 4° C. with Ysi WGA beads (250 μg/well) in 50 mM Tris-HCl (pH 7.4) followed by centrifugation at 1500 rpm for 5 minutes and resuspension in 50 mM Tris-HCl (pH 7.4). The membrane/bead mixture (15 μg membrane/250 μg beads well) was incubated for 90 minutes shaking at room temperature with 6.5 nM [2,5-^3H] Histamine dihydrochloride (30-60 Ci/mmol) in 50 mM Tris-HCl (pH 7.4), with or without competing H4 ligands. Non-specific binding was defined with 10 μM JNJ7777120. Bound radiolabel was determined using scintillation counting techniques after 90 minutes.

histamine H4 receptor [2] = molecular target: T1, histamine H4 receptor; test: H4 binding, method 1 ([3H]-histamine filtration binding on CHO cell membranes); details: for Method 1, activity at top dose (10 μM): top dose 10 μM; for inhibition at 20 µM: 1.5 h; for Ki: H4 binding, method 1, Ki calculated from IC50 (Cheng-Prussoff)
How it was run: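 Membranes from CHO cells expressing human H4 receptor (20-35 μg/well) incubated 90 min at room temperature with 3 nM [3H]-histamine in 50 mM Tris-HCl pH 7.4, ± competitor. Bound label separated by filtration on PEI-soaked GF/B filters and counted by scintillation; non-specific binding with 10 μM JNJ7777120.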

inhibition at 20 µM (histamine H4 receptor [2])	Structure (SMILES)	Ki (histamine H4 receptor [1]; Method 2 (Ki (nM)))	also measured
–	CC(C)(C)CCNc1cc(N2C[C@H]3CCCN[C@H]3C2)nc(N)n1 (racemic) [Example 23, N^4-(3,3-Dimethylbutyl)-6-[(4aR*,7aR*)-octahydro-6H-pyrrolo[3,4-b]pyridin-6-yl]pyrimidine-2,4-diamine]	–	Ki (histamine H4 receptor [1]; read-out: Method 2 (Ki (nM))): 824 nM
–	CC(C)Nc1cc(N2C[C@H]3CCCN[C@H]3C2)nc(N)n1 (racemic) [Example 24, N^4Isopropyl-6-[(4aR*,7aR*)-octahydro6H-pyrrolor[3,4-b]pyridin-6-yl]pyrimidine-2,4-diamine]	30.8 nM	–
–	CNc1cc(N2C[C@H]3CCCN[C@H]3C2)nc(N)n1 (racemic) [Example 25, N^4-Methyl-6-[(4aR*,7aR*)-octahydro-6H-pyrrolo[3,4-b]pyridin-6-yl]pyrimidine-2,4-diamine]	–	Ki (histamine H4 receptor [1]; read-out: Method 2 (Ki (nM))): 154 nM
–	CCNc1cc(N2C[C@H]3CCCN[C@H]3C2)nc(N)n1 (racemic) [Example 26, N^4-Ethyl-6-[(4aR*,7aR*)-octahydro-6H-pyrrolo[3,4-b]pyridin-6-yl]pyrimidine-2,4-diamine]	30 nM	–
–	CC(C)CNc1cc(N2C[C@H]3CCCN[C@H]3C2)nc(N)n1 (racemic) [Example 27, N^4-Isobutyl-6-[(4aR*,7aR*)-octahydro-6H-pyrrolo[3,4-b]pyridin-6-yl]pyrimidine-2,4-diamine]	22.4 nM	–
–	Nc1nc(NCC2CC2)cc(N2C[C@H]3CCCN[C@H]3C2)n1 (racemic) [Example 28, N^4-(Cyclopropylmethyl)-6-[(4aR*,7aR*)-octahydro-6H-pyrrolo[3,4-b]pyridin-6-yl] pyrimidine-2,4-diamine]	21.3 nM	–
–	CC(C)CCNc1cc(N2C[C@H]3CCCN[C@H]3C2)nc(N)n1 (racemic) [Example 29, N^4-(3-Methylbutyl)-6-[(4aR*, 7aR*)-octahydro-6H-pyrrolo [3,4-b]pyridin-6-yl] pyrimidine-2,4-diamine]	82.9 nM	–
–	Nc1nc(NC2CC2)cc(N2C[C@H]3CCCN[C@H]3C2)n1 (racemic) [Example 31, N^4-Cyclopropyl-6-[(4aR*,7aR*)-octahydro-6H-pyrrolo[3,4-b]pyridin-6-yl] pyrimidine-2,4-diamine]	21.1 nM	–
–	Nc1nc(NC2CCC2)cc(N2C[C@H]3CCCN[C@H]3C2)n1 (racemic) [Example 32, N^4-Cyclobutyl-6-[(4aR*,7aR*)-octahydro-6H-pyrrolo[3,4-b]pyridin-6-yl] pyrimidine-2,4-diamine]	20.9 nM	–
–	Nc1nc(NCC2CCCC2)cc(N2C[C@H]3CCCN[C@H]3C2)n1 (racemic) [Example 33, N^4-(Cyclopentylmethyl)-6-[(4aR*,7aR*)-octahydro-6H-pyrrolo[3,4-b]pyridin-6-yl] pyrimidine-2,4-diamine]	84.1 nM	–
–	CC(C)(C)CNc1cc(N2C[C@H]3CCCN[C@H]3C2)ncn1 (racemic) [Example 127, N-(2,2-Dimethylpropyl)-6-[(4aR*,7aR*)-octahydro-6H-pyrrolo[3,4-bjpyridin-6-yl]pyrimidin-4-amine]	65.8 nM	–
–	CC(C)(C)CCNc1cc(N2C[C@H]3CCCN[C@H]3C2)ncn1 (racemic) [Example 328, N-(3,3-Dimethylbutyl)-6-[(4aR*,7aR*)-octahydro-6H-pyrrolo[3,4-b]pyridin-6-yl]pyrimidin-4-amine]	–	Ki (histamine H4 receptor [1]; read-out: Method 2 (Ki (nM))): 554 nM
–	c1nc(NCC2CC2)cc(N2C[C@H]3CCCN[C@H]3C2)n1 (relative stereo) [Example 123, N-(Cyclopropylmethyl)-6-[(4aR*,7aR*)-octahydro-6H-pyrrolo[3,4-b]pyridin-6-yl]pyrimidin-4-amine]	–	Ki (histamine H4 receptor [1]; read-out: Method 2 (Ki (nM))): 103 nM
–	C[C@@H]1CN(c2cc(NCC3CC3)nc(N)n2)CCN1 [Example 310, N^4-(Cyclopropylmethyl)-6-[(3R)-3-methylpiperazin-1-yl]pyrim idine-2,4-diamine]	–	Method 1, activity at top dose (10 μM) (histamine H4 receptor [2]): No activity at top
80%	Nc1nc(NCc2cc(F)ccc2F)cc(N2CC[C@@H](N)C2)n1 [Example 311, 6-[(3R)-3-Aminopyrrolidin-1-yl]-N^4-(2,5-difluorobenzyl)pyrimidine-2,4-diamine]	–	–
21%	CC(C)(C)CCNc1cc(N2CC(N3CCOCC3)C2)ncn1 [Example 312, N-(3,3-Dimethylbutyl)-6-(3-morpholin-4-ylazetidin-1-yl)pyrimidin-4-amine]	–	–
–	c1nc(NC2CC2)cc(N2CCCNCC2)n1 [Example 314, N-Cyclopropyl-6-(1,4-diazepan-1-yl)pyrimidin-4-amine]	–	Method 1, activity at top dose (10 μM) (histamine H4 receptor [2]): No activity at top
–	c1ccc(CCNc2cc(N[C@H]3CCNC3)ncn2)cc1 [Example 315, N-(2-Phenylethyl)-N′-[(3S)-pyrrolidin-3-yl]pyrimidine-4,6-diamine]	–	Ki (histamine H4 receptor [2]): 5190 nM
–	CNC1CN(c2cc(NCc3cc(F)cc(F)c3)nc(N)n2)C1 [Example 316, N^4-(3,5-Difluorobenzyl)-6-[3-(methylamino)azetidin-1-yl]pyrimidine-2,4-diamine]	–	Method 1, activity at top dose (10 μM) (histamine H4 receptor [2]): No activity at top
–	CNC1CN(c2cc(NCc3c(F)cccc3F)nc(N)n2)C1 [Example 317, N^4-(2,6-Difluorobenzyl)-6-[3-(methylamino)azetidin-1-yl]pyrimidine-2,4-diamine]	–	Method 1, activity at top dose (10 μM) (histamine H4 receptor [2]): No activity at top
–	CC(C)(C)CNc1cc(N2C[C@H]3CCCN[C@H]3C2)nc(N)n1 [Example 318, N^4-(2,2-Dimethylpropyl)-6-[(4aR,7aR)-octahydro-6H-pyrrolo[3,4-b]pyridin-6-yl]pyrimidine-2,4diamine]	–	Method 1, activity at top dose (10 μM) (histamine H4 receptor [2]): No activity at top
–	c1nc(NC[C@H]2CCCO2)cc(N[C@H]2CCNC2)n1 [Example 319, N-[(3S)-Pyrrolidin-3-yl]-N′-[(2R)-tetrahydrofuran-2-ylmethyl]pyrimidine-4,6-diamine]	–	Ki (histamine H4 receptor [2]): 6010 nM
–	CNc1cc(N2CCC(C)(N)C2)nc(N)n1 (stereo not drawn) [Example 320, 6-(3-Amino-3-methylpyrrolidin-1-yl)-N^4-methylpyrimidine-2,4-diamine]	–	Method 1, % at 6.3 μM (histamine H4 receptor [2]; at 6.3 μM): 46% at 6.3 μM
15%	CNc1cc(N2CCCC(NC)C2)nc(N)n1 (stereo not drawn) [Example 321, N^4-Methyl-6-[3-(methylamino)piperidin-1-yl]pyrimidine-2,4-diamine]	–	–
57%	Nc1nc(NCC2CC2)cc(N2CC(N3CCOCC3)C2)n1 [Example 322, N^4-(Cyclopropylmethyl)-6-(3-morpholin-4-ylazetidin-1-yl)pyrimidine-2,4-diamine]	–	–
85%	CCCNc1cc(N2CCCC(NC)C2)nc(N)n1 (stereo not drawn) [Example 323, 6-[3-(Methylamino)piperidin-1-yl]-N^4-propylpyrimidine-2,4-diamine]	–	–
55%	CCNc1cc(N2CCCC(NC)C2)nc(N)n1 (stereo not drawn) [Example 324, N^4-Ethyl-6-[3-(methylamino)piperidin-1-yl]pyrimidine-2,4-diamine]	–	–
43%	CN[C@@H]1CCN(c2cc(NCc3ccc(F)cc3F)nc(N)n2)C1 [Example 325, N^4-(2,4-Difluorobenzyl)-6-[(3R)-3-(methylamino)pyrrolidin-1-yl]pyrimidine-2,4-diamine]	–	–
48%	CN[C@@H]1CCN(c2ncnc(NCC(C)(C)C)c2C)C1 [Example 326, N-(2,2-Dimethylpropyl)-5-methyl-6-[(3R)-3-(methylamino)pyrrolidin-1-yl]pyrimidin-4-amine]	–	–

Structure (SMILES)	inhibition at 20 µM (histamine H4 receptor [2])	Ki (histamine H4 receptor [1]; Method 2 (Ki (nM)))	also measured
CCCNc1cc(N2CCN[C@H](C)C2)ncn1 [Example 313, 6-[(3R)-3-Methylpiperazin-1-yl]-N-propylpyrimidin-4-amine]	70%	–	–
